According to patent US20220273739A1, “COMBINATION DRUG FOR TREATING MALIGNANT TUMOR, PHARMACEUTICAL COMPOSITION FOR TREATING MALIGNANT TUMOR, AND PHARMACEUTICAL COMPOSITION FOR MALIGNANT TUMOR TREATMENT” (priority 2019, published 2022):

Test system: murine squamous cell carcinoma (SCC VII)
Assay: Antitumor effect (tumor size) in both-side side-abdomen implanted SCC VII tumor-bearing mice
Format: in vivo, C3H/He Slc mice
Settings: for antitumor effect (tumor size), tumor with administration of the drug (treated group): FIG. 1A, intratumoral administration on Day 0, 3, 6, compared to MOCK (saline solution), C-REV 1×10^6 pfu/100 μl, cGAMP 20 μg/100 μl; for antitumor effect (tumor size), tumor spaced apart from the tumor with administration of the drug (non-treated group): FIG. 1B / FIG. 2, tumor on opposite side of the abdomen received saline solution only, drug given to the other tumor on Day 0, 3, 6
From the text: Six-week-old female C3H/He Slc mice (purchased from Chubu Kagaku Shizai Co., Ltd.) were used as mice. A tumor of murine squamous cell carcinoma (SCC VII; given by professor Shin-ichiro Masunaga, Kyoto University Institute for Integrated Radiation and Nuclear Science) was cut into 2 mmcubes, and two of the cubes were implanted under the skin on both sides of the abdomen of the mice by a tumor implantation needle (both-side side-abdomen implanted model). When the size of the tumor reached the size of 100 mm^3, grouping was performed. Although differing among the mice, one tumor end and the other tumor end were spaced apart from each other by about 10 mm.
First medicine: C-REV was suspended in a saline solution to obtain a concentration of 1×10^6 pfu/100 μl.
Second medicine: 2′3′-cGAMP (No. tlrl-nacga23 by Invivogen) was dissolved and suspended in a saline solution to obtain a concentration of 20 μg/100 μl.
Day 0: The first medicine of 100 μl was administered to a tumor (treated group) on one side of the abdomen. Further, a saline solution of 100 μl was administered to a tumor (non-treated group) on the other side of the abdomen. Day 3: The second medicine of 100 μl was administered to a tumor (treated group) on one side of the abdomen. Further, a saline solution of 100 μl was administered to a tumor (non-treated group) on the other side of the abdomen. Day 6: The second medicine of 100 μl was administered to a tumor (treated group) on one side of the abdomen. Further, a saline solution of 100 μl was administered to a tumor (non-treated group) on the other side of the abdomen.
The tumor size was calculated from multiplication of the longer diameter by the shorter diameter by the shorter diameter by 1/2 of a tumor.
The experiment was performed in the same procedure as for Example 1 except for administration of a saline solution of 100 μl on Day 3 and Day 6 instead of the administration of the second medicine to the treated group.
The experiment was performed in the same procedure as for Example 1 except for administration of the second medicine on Day 0 instead of the administration of the first medicine to the treated group and except for administration of a saline solution of 100 μl on Day 3 and Day 6 instead of the administration of the second medicine to the treated group.
The experiment was performed in the same procedure as for Example 1 except for administration of a saline solution of 100 μl on Day 0 instead of the administration of the first medicine to the treated group and except for administration of a saline solution of 100 μl on Day 3 and Day 6 instead of the administration of the second medicine to the treated group.
The experiment was performed in the same procedure as for Example 1 except for use of the hrR3 instead of the C-REV as the first medicine. […]

Row | Compound | antitumor effect (tumor size), tumor with administration of the drug (treated group) | antitumor effect (tumor size), tumor spaced apart from the tumor with administration of the drug (non-treated group)
1 | Nc1nc2c(ncn2[C@@H]2O[C@@H]3COP(=O)(O)O[C@H]4[C@@H](O)[C@H](n5cnc6c(N)ncnc65)O[C@@H]4COP(=O)(O)O[C@@H]2[C@@H]3O)c(=O)[nH]1 [cGAMP, 2′3′-cyclic GMP-AMP] | an antitumor effect was developed | almost no antitumor effect
2 | Canerpaturev [C-REV] | an antitumor effect was developed | almost no antitumor effect
